# Tests used:
# physchem [1] = type: physicochemical; details: phosphate buffer
# Experimental: (§1) A stock solution was prepared by dissolving 10 mg of 5FU/TRI in 10 ml acetonitrile. This was then added to a series of phosphate buffers at pH 3, 5, 6.4, 7.4 and 8.4 at 37°C to give final concentrations of 100 ug/ml. Care was taken to ensure that these solutions were indeed solutions and not suspensions. Samples were periodically removed and assayed by HPLC as described below. Enzymatic hydrolysis was determine in a similar way using pooled serum from 3 volunteers. The assay procedure used distinguished between TRI and 5FU/TRI. 5FU was assayed under different conditions. HPLC Assays: Samples of buffer containing codrug and steroids were assayed by HPLC using a fully automated Hitachi system with a C-18 reverse phase column (25 cm × 4 mm x 5 µm) and uv detection. The mobile phase was 40% acetonitrile buffered to 4.0 with 0.02% sodium acetate. The flow rate was 1.0 ml/min and detection was at 238 nm. Under these conditions the retention time of the codrug 5FU/TRI was 17 minutes while triamcinolone acetonide eluted at 9 minutes. Quantitation limits were 0.3 and 0.5 ug/ml, respectively. […] For 5FU an Applied Biosystems HPLC system was used with a C-18 column reverse phase column (25 cm x 4 mm x 5 µm) and 0.02% sodium acetate buffer mobile phase (Ph 4.0). The flow rate was 1.0 ml/min and detection was by uv at 266 nm. Under these condition the retention time was 6.5 minutes and the detection limit 0.2 ug/ml.
# [2] = system: proliferative vitreoretinopathy (PVR); test: Intravitreal pellet after vitrectomy, proliferative vitreoretinopathy; type: in vivo; details: pellet implanted intravitreally after vitrectomy; animal studies proceeding
# [3] = system: extraocular muscle (EOM) surgery in rabbits; test: Scar reduction after extraocular muscle surgery with codrug implants (Example 5); type: in vivo
# Experimental: After the IRM was sewn back into its insertion site, four 2 mg codrug implants were inserted between sclera and muscle in the right eye, while the left was used as a control. Bioerodible codrug implants releasing 5FU and TRI over 6 weeks were prepared. Devices release equimolar amounds of 5FU and TRI. Animals were sacrificed at 1, 2 and 3 weeks and eyes eviscerated. Specimens were prepared and stained with H&E. The scar thickness and cellular infiltrate were determined quantitatively using a Bioscan image analysis program.
# [4] = system: posterior capsular opacification (PCO); test: Posterior capsular opacification after cataract extraction and IOL implantation with codrug pellet (Example 7); type: in vivo, New Zealand White rabbits
# Experimental: Codrug pellets were prepared that gave pseudo zero order release of 5FU and TRI in an equimolar ratio over 6 weeks. […] 1.5 mm pellets containing 1.5 mg of TRI and 0.5 mg 5FU were prepared and fixed to the haptics of IOLs using the bioerodible polybutyl cyanoacrylate. This polymer is soaked into the pellet forming a codrug/cyanoacrylate matrix as it dried (figure 3). 16 New Zealand White rabbits were used in this study, one eye (control) received a polymethyl methacrylate intraocular lens (IOL) (Chiron Intraoptics) while the other received an IOL with codrug. Eyes were examined regularly by slit lamp and PCO scored from 0 to 4+. Retinal function was determined by electroretinogram (ERG) before implantation and before sacrifice. Animals were sacrificed after 4, 8, 12 and 16 weeks; eyes were removed and fixed in formalin. Photographs of posterior capsule were projected onto a grid and the percentage of PCO calculated.
# [5] = immersed in pH 7.4 buffer
# in vitro = in vitro ADME; details: human, serum, t½
# Experimental: as §1, with “Under these condition the retention time was 6.5 minutes and the detection limit 0.2 ug/ml.” left out
# To quantitate 5FU it was necessary to remove acetonitrile before analysis. […]
# physchem [6] = details: buffer
# [7] = In vitro release from 2 mg codrug pellets in phosphate buffer (Example 3); type: physicochemical
# Experimental: Two mg pellets of the codrug 5FU/TRI were prepared in a 1.5 mm pellet press using a modified Parr Instrument Press. Pellets were then immersed in 5 ml phosphate buffer (Ph 7.4, 37 °C) and 300 µl samples removed each day for 6 days; there immediately replaced was replaced 300 µl of buffer. Samples were assayed by HPLC for 5FU/TRI, triamcinolone acetonide and 5FU. After 6 days buffer was completely replaced, to maintain sink conditions, and sampling continued.
# [8] = Subconjunctival codrug devices: release from explanted devices, toxicity (Example 6); type: in vivo, rabbits; details: rabbit
# Experimental: Codrug devices were prepared as flat discs 2.5 mm in diameter weighing 5 mg. Each device contained approximately 3.7 mg of TRI and 1.3 mg of 5FU and were composed of over 97% active substance. Devices were implanted subconjunctivally in each eye of ten rabbits (figure 2). Toxicity and inflammation were determined by weekly slit lamp examinations and electroretinograms (ERGs). Animals were sacrificed after 3, 7, 10 and 14 days and eyes eviscerated. After freezing at -70°C devices were removed for determination of residual drugs and the complete vitreous and aqueous dissected from the ice ball to determine the concentration of SFU and TRI. Two animals were used for histology and were sacrificed 6 weeks after implantation.
# [9] = Vitreous concentrations after intravitreal implantation of codrug pellets (Example 4); type: in vivo, New Zealand white rabbits
# Experimental: Two mg pellets of the codrug 5FU/TRI were prepared using a 1.5 mm press. These pellets were then fixed onto 6-0 nylon suture using intraocular lens grade silicone. silicone covered the base of the pellets providing a platform for suture attachment. Alternatively a solution of 2% or 5% polylactic acid was used. Pellets attached by both methods were implanted into the vitreous of 8 New Zealand white rabbits through a small incision through the sclera. For each type of device, two animals were killed after 1, 2, 3, and 4 weeks and the vitreous and aqueous obtained from the frozen sphere. Before death animals were examined with a slit lamp. […] Pellets were then implanted into the vitreous of 8 New Zealand White rabbits in a similar manner to that described in 3b except that sclerotomy sites were smaller in this case (2.5 mm). […] HPLC analysis was then performed on tissue samples and explanted devices to determine the concentrations of 5FU, triamcinolone acetonide and intact 5FU/TRI.
# [10] = Intravitreal codrug implants: pharmacokinetics and toxicity (Example 8); type: in vivo, New Zealand White rabbits; details: intravitreal implant
# Experimental: (§2) Bioerodible codrug implants were prepared 1.5 mm in diameter and attached to 6-0 nylon suture. Implants were immersed in 5 ml of phosphate buffer (pH 7.4) and samples periodically removed for HPLC assay to determine the release of both 5FU and TRI. Similar implants were then inserted into the vitreous of 14 New Zealand White rabbits (figure 4). Toxicity was assess by electroretinogram and slit lamp examination in all animals. Histopathologic examination was performed on four animals. Ten animals were used for pharmacokinetics; two animals were sacrificed 1, 2, 3, 4 and 5 weeks after implantation. Eyes were enucleated, devices removed and both vitreous and aqueous obtained. All samples were assayed by HPLC. Five animals received actual devices in one eye and placebo implants in contralateral eyes. These were sacrificed after 3 and 6 weeks for histopathologic examination.
# [11] = In vitro release from 1.5 mm codrug implants in phosphate buffer (Example 8); type: physicochemical; details: 1.5 mm implant, phosphate buffer pH 7.4
# Experimental: as §2
# [12] = Stability of acetazolamide sulfocarbamate derivative in buffer solution; type: physicochemical
smiles,measurement,setting,value
CC1(C)O[C@@H]2C[C@H]3[C@@H]4CCC5=CC(=O)C=C[C@]5(C)[C@@]4(F)[C@@H](O)C[C@]3(C)[C@]2(C(=O)COC(=O)OCn2cc(F)c(=O)[nH]c2=O)O1 [5FU/TRI],half-life,physchem [1]; pH 3,204 h
same,half-life,physchem [1]; pH 5,12.7 h
same,half-life,physchem [1]; pH 6.4,1.3 h
same,half-life,physchem [1]; pH 7.4,0.235 h
same,half-life,physchem [1]; pH 8.4,0.163 h
same,occurrence of PVR,[2],reduce the occurrence of PVR
same,number of inflammatory cells in a defined area of tissue,"[3]; 40 µm^2 area, control > 300",< 35
same,scar thickness,[3]; drug treated eyes (controls 35 µm),7 µm
same,decrease in scar thickness compared to controls,"[3]; four 2 mg implants between sclera and muscle, rabbit",80%
same,tolerability (ERG and histopathologic data),"[4]; codrug pellet on IOL haptic, rabbit capsular bag",well tolerated with no indication of a toxic or inflammatory response
same,"PCO by slit lamp examination, study versus control eyes",[4]; p< 0.001,statistically significant decrease in PCO
same,PCO assessed using a grid,[4]; p< 0.03 by 8 weeks,arrest of opacification
same,release of TRI and 5FU from compressed pellet,[5],slowly releases both TRI and 5FU over an extended period of time (months)
same,half-life,in vitro; half-life,< 10 min
same,half-life,in vitro,8.8 min
same,half-life,physchem [6]; pH 3,> 48 h
same,half-life,physchem [6]; pH 7.4,< 0.05 h
same,fraction of triamcinolone acetonide and 5FU released while rates were maintained,"[7]; 2 mg pellet, phosphate buffer pH 7.4",over 60%
same,Release of 5FU,"[7]; 2 mg pellet, phosphate buffer pH 7.4, 37 °C",0.4 ± 0.06 µg/h
same,intact codrug in the receptor medium,"[7]; 2 mg pellet, phosphate buffer pH 7.4, 37 °C, HPLC detection limit 0.5 ug/ml",No intact codrug was detected
same,mean release rate of triamcinolone acetonide,"[7]; 2 mg pellet, phosphate buffer pH 7.4, 37 °C, pseudo zero order",1.4 ± 0.3 µg/h
same,mean ratio of 5FU to triamcinolone acetonide concentration (ug/ml) in the receptor solution,[7]; all time points (equimolar release),3.40 +/- 0.15
same,ERGs,[8]; in vivo,normal
same,release rate of 5FU and TRI from explanted devices (pseudo zero order),[8]; in vivo,9 +/-1 % per day
same,toxicity or inflammation around the implantation site,"[8]; subconjunctival devices, slit lamp",no evidence of toxicity or inflammation
same,intact codrug in the vitreous,[9]; 2 mg pellets implanted in rabbit vitreous,No intact codrug was detected
same,intravitreal levels of triamcinolone,"[9]; rabbit vitreous, week 5",below the detection limit of the HPLC
same,Levels of TRI and 5FU in the aqueous,[10]; rabbit,too low to be detected
same,tolerability in rabbit eyes,"[10]; ERG, slit lamp, histopathology",well tolerated in rabbit eyes with no indication of toxicity or inflammation
same,release of 5FU in buffer,[11],0.3 µg/h
same,release of TRI in buffer,[11],1.4 µg/h
CC(=O)Nc1nnc(S(=O)(=O)NC(=O)O[C@@H]2C[C@H](C)CC[C@H]2C(C)C)s1 [product 35],stability in buffer solution,[12],appears to stable in buffer solution
